Laboratory results from the NIST ThermoML archive (doi:10.1021/je025655p).

Assays:
[1] = xn = mol fraction of the nth substance listed; details: 101.3 kPa, Liquid; for viscosity: Capillary tube (Ostwald / Ubbelohde) method; for speed of sound: Sing-around technique in a fixed-path interferometer; for mass density: Vibrating tube method
[2] = excess molar enthalpy (molar enthalpy of mixing); xn = mol fraction of the nth substance listed; details: 101.3 kPa, Liquid, Flow calorimetry

OCC(F)(F)F [2,2,2-trifluoroethanol] + C1CCOCC1
Details | excess molar enthalpy [kcal/mol] | mass density [kg/m3] | speed of sound [m/s] | viscosity [mPa·s]
[1], 283.15 K, x2 = 0.0508 | – | – | – | 2.521
[1], 283.15 K, x2 = 0.1011 | – | – | – | 2.265
[1], 283.15 K, x2 = 0.1039 | – | 1328.18 | 903.5 | –
[1], 283.15 K, x2 = 0.2025 | – | – | – | 1.834
[1], 283.15 K, x2 = 0.2071 | – | 1259.32 | 942.2 | –
[1], 283.15 K, x2 = 0.3024 | – | – | – | 1.546
[1], 283.15 K, x2 = 0.3067 | – | – | 985.6 | –
[1], 283.15 K, x2 = 0.3073 | – | 1199.39 | – | –
[1], 283.15 K, x2 = 0.404 | – | – | – | 1.348
[1], 283.15 K, x2 = 0.4123 | – | – | 1034 | –
[1], 283.15 K, x2 = 0.4127 | – | 1142.29 | – | –
[1], 283.15 K, x2 = 0.5017 | – | 1097.77 | 1076.2 | –
[1], 283.15 K, x2 = 0.5027 | – | – | – | 1.22
[1], 283.15 K, x2 = 0.6011 | – | 1051.7 | 1124.9 | –
[1], 283.15 K, x2 = 0.6069 | – | – | – | 1.123
[1], 283.15 K, x2 = 0.7013 | – | – | – | 1.064
[1], 283.15 K, x2 = 0.7183 | – | 1001.3 | 1184.3 | –
[1], 283.15 K, x2 = 0.8016 | – | – | – | 1.026
[1], 283.15 K, x2 = 0.8206 | – | 960.36 | 1237.7 | –
[1], 283.15 K, x2 = 0.8955 | – | 931.9 | 1278.1 | –
[1], 283.15 K, x2 = 0.9064 | – | – | – | 1.01
[1], 298.15 K, x2 = 0.0508 | – | – | – | 1.68
[1], 298.15 K, x2 = 0.1011 | – | – | – | 1.557
[1], 298.15 K, x2 = 0.1023 | – | 1305.58 | 850.5 | –
[1], 298.15 K, x2 = 0.2025 | – | – | – | 1.33
[1], 298.15 K, x2 = 0.2029 | – | 1239.41 | 886.4 | –
[1], 298.15 K, x2 = 0.3024 | – | – | – | 1.159
[1], 298.15 K, x2 = 0.3203 | – | 1170.85 | 933.6 | –
[1], 298.15 K, x2 = 0.404 | – | – | – | 1.034
[1], 298.15 K, x2 = 0.412 | – | 1122.5 | 972.6 | –
[1], 298.15 K, x2 = 0.5027 | – | – | – | 0.9509
[1], 298.15 K, x2 = 0.5192 | – | 1070.38 | – | –
[1], 298.15 K, x2 = 0.5208 | – | – | 1021 | –
[1], 298.15 K, x2 = 0.6069 | – | – | – | 0.8855
[1], 298.15 K, x2 = 0.6171 | – | 1026.55 | 1065.4 | –
[1], 298.15 K, x2 = 0.7013 | – | – | – | 0.845
[1], 298.15 K, x2 = 0.7342 | – | 977.81 | 1121 | –
[1], 298.15 K, x2 = 0.793 | – | 954.59 | – | –
[1], 298.15 K, x2 = 0.7996 | – | – | 1152.3 | –
[1], 298.15 K, x2 = 0.8016 | – | – | – | 0.8183
[1], 298.15 K, x2 = 0.8967 | – | 915.73 | 1201.6 | –
[1], 298.15 K, x2 = 0.9064 | – | – | – | 0.8047
[1], 313.15 K, x2 = 0.0508 | – | – | – | 1.171
[1], 313.15 K, x2 = 0.0995 | – | – | 813.9 | –
[1], 313.15 K, x2 = 0.1011 | – | – | – | 1.112
[1], 313.15 K, x2 = 0.1028 | – | 1280.8 | – | –
[1], 313.15 K, x2 = 0.2 | – | 1217.96 | 845.8 | –
[1], 313.15 K, x2 = 0.2025 | – | – | – | 0.9911
[1], 313.15 K, x2 = 0.3024 | – | – | – | 0.891
[1], 313.15 K, x2 = 0.3049 | – | 1157.77 | 885 | –
[1], 313.15 K, x2 = 0.404 | – | – | – | 0.8127
[1], 313.15 K, x2 = 0.4108 | – | 1102.63 | – | –
[1], 313.15 K, x2 = 0.4111 | – | – | 927.4 | –
[1], 313.15 K, x2 = 0.5027 | – | – | – | 0.757
[1], 313.15 K, x2 = 0.504 | – | 1058.19 | 967.4 | –
[1], 313.15 K, x2 = 0.5961 | – | 1017.26 | – | –
[1], 313.15 K, x2 = 0.6032 | – | – | 1010.4 | –
[1], 313.15 K, x2 = 0.6069 | – | – | – | 0.7128
[1], 313.15 K, x2 = 0.6986 | – | 974.97 | – | –
[1], 313.15 K, x2 = 0.7013 | – | – | – | 0.6832
[1], 313.15 K, x2 = 0.733 | – | – | 1070.3 | –
[1], 313.15 K, x2 = 0.8016 | – | – | – | 0.6642
[1], 313.15 K, x2 = 0.8321 | – | 923.77 | 1116.2 | –
[1], 313.15 K, x2 = 0.8986 | – | 899.6 | – | –
[1], 313.15 K, x2 = 0.8988 | – | – | 1149.4 | –
[1], 313.15 K, x2 = 0.9064 | – | – | – | 0.6543
[2], 283.15 K, x2 = 0.065 | -0.102 | – | – | –
[2], 283.15 K, x2 = 0.127 | -0.178 | – | – | –
[2], 283.15 K, x2 = 0.248 | -0.283 | – | – | –
[2], 283.15 K, x2 = 0.36 | -0.342 | – | – | –
[2], 283.15 K, x2 = 0.466 | -0.362 | – | – | –
[2], 283.15 K, x2 = 0.57 | -0.35 | – | – | –
[2], 283.15 K, x2 = 0.664 | -0.303 | – | – | –
[2], 283.15 K, x2 = 0.755 | -0.243 | – | – | –
[2], 283.15 K, x2 = 0.839 | -0.168 | – | – | –
[2], 283.15 K, x2 = 0.921 | -0.0829 | – | – | –
[2], 283.15 K, x2 = 0.962 | -0.037 | – | – | –
[2], 298.15 K, x2 = 0.065 | -0.113 | – | – | –
[2], 298.15 K, x2 = 0.127 | -0.204 | – | – | –
[2], 298.15 K, x2 = 0.248 | -0.322 | – | – | –
[2], 298.15 K, x2 = 0.36 | -0.384 | – | – | –
[2], 298.15 K, x2 = 0.466 | -0.404 | – | – | –
[2], 298.15 K, x2 = 0.57 | -0.387 | – | – | –
[2], 298.15 K, x2 = 0.664 | -0.339 | – | – | –
[2], 298.15 K, x2 = 0.755 | -0.268 | – | – | –
[2], 298.15 K, x2 = 0.839 | -0.184 | – | – | –
[2], 298.15 K, x2 = 0.921 | -0.0908 | – | – | –
[2], 298.15 K, x2 = 0.962 | -0.0428 | – | – | –
[2], 313.15 K, x2 = 0.065 | -0.114 | – | – | –
[2], 313.15 K, x2 = 0.127 | -0.215 | – | – | –
[2], 313.15 K, x2 = 0.248 | -0.348 | – | – | –
[2], 313.15 K, x2 = 0.36 | -0.421 | – | – | –
[2], 313.15 K, x2 = 0.466 | -0.444 | – | – | –
[2], 313.15 K, x2 = 0.57 | -0.427 | – | – | –
[2], 313.15 K, x2 = 0.664 | -0.374 | – | – | –
[2], 313.15 K, x2 = 0.755 | -0.297 | – | – | –
[2], 313.15 K, x2 = 0.839 | -0.203 | – | – | –
[2], 313.15 K, x2 = 0.921 | -0.0997 | – | – | –
[2], 313.15 K, x2 = 0.962 | -0.0466 | – | – | –
